Results as given in article PMC10135567, “New Indole-3-Propionic Acid and 5-Methoxy-Indole Carboxylic Acid Derived Hydrazone Hybrids as Multifunctional Neuroprotectors” (Antioxidants, 2023).

Test system: SH-SY5Y cells
Assay: H2O2-induced oxidative stress model in SH-SY5Y cells
Assay type: cell-based, human
Details: H2O2 1 mM 15 min
Description: The SH-SY5Y cells were seeded in 96-well plates at a density of 3.5 × 10^4/well in 100 μL of RPMI supplemented with FBS for 24 h. Then, the cell medium was aspirated, and the cells were treated with different concentrations of the compounds—1, 10, and 50 µM for 90 min. Afterwards, the SH-SY5Y cells were washed with PBS and were exposed to hydrogen peroxide (H2O2) (1 mM in PBS for 15 min) to induce oxidative stress. All well contents were replaced by fresh culture medium and incubated for 24 h. MTT assay was used to evaluate the amount of attached viable cells. Negative controls (cells without H2O2 treatment) were considered as 100% protection and H2O2-treated cells as 0% protection.
To evaluate the possible neuroprotective effects of the compounds, the SH-SY5Y cells were pre-treated with different concentrations (1, 10, 50 µM) for 90 min and then exposed to H2O2 (1 mM) for 15 min. The cell viability of all compounds was measured to verify their protective effect against the toxicity of hydrogen peroxide.

Compound: COc1ccc2[nH]cc(CCNC(C)=O)c2c1 [Melatonin]
- protective effect: increased cell viability of SH-SY5Y vs. H2O2 group (1 µM pre-treatment 90 min): 19%
- protective effect: increased cell viability of SH-SY5Y vs. H2O2 group (10 µM pre-treatment 90 min): 42%
- protective effect: increased cell viability of SH-SY5Y vs. H2O2 group (50 µM pre-treatment 90 min): 64%
